Read-outs that look alike come from different tables or passages of the source.
Experiments:
physchem [1] = type: physicochemical; settings: pH 7
Sphaerotheca fuliginea = experiment: Sphaerotheca test (cucumber)/protective; type: in vivo; settings: Podosphaera fuliginea, 168 h, active compound concentration of 500 ppm, protective, evaluation 7 days after the inoculation, read-out: efficacy
physchem [2] = type: physicochemical; settings: pH 7.8
Experimental: The log P values were measured in accordance with EEC Directive 79/831 Annex V.A8 by HPLC (High Performance Liquid Chromatography) on reversed-phase columns (C 18) using the methods below: [c] The LC-MS determination in the neutral range was carried out at pH 7.8 using the mobile phases 0.001 molar aqueous ammonium bicarbonate solution and acetonitrile linear gradient from 10% acetonitrile to 95% acetonitrile.

[3] = log P by HPLC on reversed-phase columns (C 18), method [a], acidic range pH 2.3; type: physicochemical
Experimental: The log P values were measured in accordance with EEC Directive 79/831 Annex V.A8 by HPLC (High Performance Liquid Chromatography) on reversed-phase columns (C 18) using the methods below: [a] The determination was carried out in the acidic range at pH 2.3 using the mobile phases 0.1% aqueous phosphoric acid and acetronitrile linear gradient from 10% acetonitrile to 95% acetronitrile.

Fusarium proliferatum = experiment: Production of Fumonisin FB1 by Fusarium proliferatum (microtitre plates; FB1 by HPLC-MS/MS, growth by OD620); type: cell-based; settings: for IC50: Fusarium proliferatum, 144 h
Fusarium graminearum = experiment: microbe, parasite or virus in culture; type: cell-based; settings: 168 h, read-out: activity in the inhibition of DON/AcDON
[4] = log P by LC-MS, method [b], acid range pH 2.7; type: physicochemical; settings: pH 2.7
Experimental: The log P values were measured in accordance with EEC Directive 79/831 Annex V.A8 by HPLC (High Performance Liquid Chromatography) on reversed-phase columns (C 18) using the methods below:
[b] The LC-MS determination in the acid range was carried out at pH 2.7 using the mobile phases 0.1% aqueous formic acid and acetonitrile (contains 0.1% formic acid)
linear gradient from 10% acetonitrile to 95% acetonitrile.

Phakopsora pachyrhizi = experiment: Phakopsora test (soya beans)/protective; type: in vivo; settings: active compound concentration of 250 ppm, protective, evaluation 1 day after the inoculation

Compound | chromatographic logP (physchem [1]) | pest or weed control at 500 ppm (Sphaerotheca fuliginea) | chromatographic logP (physchem [2]) | chromatographic logP ([3]; pH 2.3, log p) | IC50 (Fusarium proliferatum; FB1 concentration in liquid medium after 6 days at 20° C., HPLC-MS/MS, read-out: pI50 Fum (converted)) | IC50 (Fusarium proliferatum; OD620 at the beginning and after 6 days, read-out: pI50 growth (converted)) | inhibition at 50 µM (Fusarium graminearum) | chromatographic logP ([3]; pH 2.3, log P (pH 2.3)) | chromatographic logP [4] | pI50 Fum (Fusarium proliferatum; FB1 concentration in liquid medium after 6 days at 20° C., HPLC-MS/MS) | pI50 growth (Fusarium proliferatum; OD620 at the beginning and after 6 days) | efficacy (Phakopsora pachyrhizi) | log p (physchem [2]) | log p [4]
S=C1CCCN1c1cccc(Nc2ncc(Cl)c(NC3CC3)n2)c1 [Example 33, 1-(3-{[5-Chloro-4-(cyclopropylamino)pyrimidin-2-yl]amino}phenyl)pyrrolidine-2-thione] | 2.54 | ≥ 70% | 2.54 | 1.69 |  |  |  |  |  |  |  |  |  | 
O=C1OCCN1c1cccc(Nc2ncc(Cl)c(NC3CCC3)n2)c1 [Example 59, 3-(3-{[5-Chloro-4-(cyclobutylamino)pyrimidin-2-yl]amino}phenyl)-1,3-oxazolidin-2-one] |  | ≥ 70% |  | 1.64 | 0.631 µM | 2.51 µM | > 80% | 1.64 | 1.64 |  |  |  |  | 
FC(F)(F)c1cnc(Nc2cccc(N3CCCC3=S)c2)nc1NC1CC1 [Example 214] |  |  |  |  |  |  |  |  |  | 5.1 | 5 | ≥ 80% | 2.86[c]; | 2.59[b]

From patent US20110245242A1, “Heterocyclically Substituted Anilinopyrimides” (Bayer CropScience AG, priority 2008, published 2011)
